Experimental findings from ChEMBL document CHEMBL1146226, “Synthesis of desformylflustrabromine and its evaluation as an alpha4beta2 and alpha7 nACh receptor modulator” (Bioorg Med Chem Lett, 2007) are described below.

Molecules are shown by their SMILES.

Test [1] concerns the target Neuronal acetylcholine receptor subunit alpha-7 (Homo sapiens, UniProt P36544). Put plainly: Activity at human alpha7 nACh receptor expressed in Xenopus oocytes assessed as inhibition of acetyl chlone-induced currents by two-electrode voltage clamp method. The format is cell-based, Oocyte.
In test [2] the target is T1, Neuronal acetylcholine receptor; alpha4/beta2 (Homo sapiens, UniProt P17787+P43681). The test is described as follows: Activity at human alpha-4-beta-2 nACh receptor expressed in Xenopus oocytes assessed as inhibition of acetyl chlone-induced currents by two-electrode voltage clamp method. In kind it is cell-based, Oocyte.
T1 sequence (P17787 whole entry): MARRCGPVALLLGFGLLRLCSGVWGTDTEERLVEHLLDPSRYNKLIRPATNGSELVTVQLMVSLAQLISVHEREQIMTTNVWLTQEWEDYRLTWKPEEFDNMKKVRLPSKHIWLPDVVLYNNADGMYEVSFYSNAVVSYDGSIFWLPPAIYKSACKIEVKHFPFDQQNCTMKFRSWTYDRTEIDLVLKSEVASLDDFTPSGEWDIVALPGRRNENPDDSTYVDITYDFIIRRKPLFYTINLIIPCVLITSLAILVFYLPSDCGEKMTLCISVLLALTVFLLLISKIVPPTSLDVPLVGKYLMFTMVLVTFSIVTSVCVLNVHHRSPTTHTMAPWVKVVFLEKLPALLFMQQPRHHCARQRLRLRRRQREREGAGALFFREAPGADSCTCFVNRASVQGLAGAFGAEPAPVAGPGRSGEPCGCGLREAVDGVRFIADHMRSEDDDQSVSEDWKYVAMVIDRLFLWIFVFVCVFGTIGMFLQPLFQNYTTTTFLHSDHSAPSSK
T1 sequence (P43681 whole entry): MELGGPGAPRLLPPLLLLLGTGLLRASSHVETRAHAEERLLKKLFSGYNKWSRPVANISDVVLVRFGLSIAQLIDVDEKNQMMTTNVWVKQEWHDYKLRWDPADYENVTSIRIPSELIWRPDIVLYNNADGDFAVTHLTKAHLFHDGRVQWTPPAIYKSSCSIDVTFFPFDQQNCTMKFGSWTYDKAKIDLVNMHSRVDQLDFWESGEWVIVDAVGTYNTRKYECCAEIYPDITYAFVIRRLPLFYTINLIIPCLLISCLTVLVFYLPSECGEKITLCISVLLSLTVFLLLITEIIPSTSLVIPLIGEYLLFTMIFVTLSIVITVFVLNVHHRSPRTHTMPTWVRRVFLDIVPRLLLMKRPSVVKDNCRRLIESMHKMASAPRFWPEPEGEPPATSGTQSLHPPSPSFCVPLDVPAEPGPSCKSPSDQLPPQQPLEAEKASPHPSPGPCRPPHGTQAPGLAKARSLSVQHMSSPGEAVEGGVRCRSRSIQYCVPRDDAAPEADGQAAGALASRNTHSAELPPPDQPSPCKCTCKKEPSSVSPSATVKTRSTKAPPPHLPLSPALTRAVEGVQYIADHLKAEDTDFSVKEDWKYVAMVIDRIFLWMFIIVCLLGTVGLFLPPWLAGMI
Test [3] has as its target T1, Neuronal acetylcholine receptor; alpha4/beta2. Put plainly: Activity at human alpha-4-beta-2 nACh receptor expressed in Xenopus oocytes assessed as potentiation of acetyl chlone-induced currents by two-electrode voltage clamp method relative to control. In kind it is cell-based. The conditions noted are these: Oocyte.

Sequence of Neuronal acetylcholine receptor subunit alpha-7 (P36544 whole entry): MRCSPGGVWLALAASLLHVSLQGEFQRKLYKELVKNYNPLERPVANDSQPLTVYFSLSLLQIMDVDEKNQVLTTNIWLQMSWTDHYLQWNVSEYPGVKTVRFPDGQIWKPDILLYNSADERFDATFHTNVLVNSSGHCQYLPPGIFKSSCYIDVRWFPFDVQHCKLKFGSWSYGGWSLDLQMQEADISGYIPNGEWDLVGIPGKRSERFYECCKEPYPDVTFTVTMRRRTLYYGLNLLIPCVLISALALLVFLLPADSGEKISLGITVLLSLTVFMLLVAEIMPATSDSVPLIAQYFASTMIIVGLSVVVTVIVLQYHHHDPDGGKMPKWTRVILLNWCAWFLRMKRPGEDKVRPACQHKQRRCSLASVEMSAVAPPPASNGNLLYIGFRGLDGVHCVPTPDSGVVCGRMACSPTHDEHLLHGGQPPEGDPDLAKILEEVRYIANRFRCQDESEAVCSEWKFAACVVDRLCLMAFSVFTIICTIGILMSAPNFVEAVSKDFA

Take `CNCCc1cn(CC=C(C)C)c2cc(Br)ccc12` [DEFORMYLFLUSTRABROMINE B]: the IC50 in test [1] was found to be 209 µM.
For the compound `C=CC(C)(C)c1[nH]c2cc(Br)ccc2c1CCNC` [DESFORMYLFLUSTRABROMINE], the results for the IC50 in test [2] and in test [1] were 150 µM and 44 µM, respectively. For the same compound, in test [3], the Activity is 295%.
